In one assay the test system is KB. Briefly: Cytotoxicity against human KB cells assessed as growth inhibition measured after 3 days by MTT assay. The assay is classed as functional, cell-based. Conditions: 72 h.
Another assay has as its system HepG2. Nature of the assay: Cytotoxicity against human HepG2 cells assessed as growth inhibition measured after 3 days by MTT assay. The assay is classed as functional, cell-based. Conditions: HepG2, 72 h. For orientation: Tetrazolium assays rely on reduction of a dye to a coloured formazan, in cell work by metabolically active cells.

Structures are written as SMILES. pIC50: −log10 of the molar value.

Usually pIC50 stands for the negative decadic logarithm of the IC50, by convention in mol/L. Regarding `Cc1cn([C@@H]2C[C@@H](n3cc(COC(=O)[C@@H](Cc4c[nH]c5ccccc45)n4c5c(c6ccccc6c4=O)C(=O)c4ccccc4-5)nn3)[C@H](CO)O2)c(=O)[nH]c1=O` (single isomer, unassigned), the pIC50 was 4.66 in the assay on KB and 4.07 with HepG2.
With `O=C1c2ccccc2-c2c1c1ccccc1c(=O)n2CC(O)Cn1cc(CN2CCOCC2)nn1` (stereo unspecified), the pIC50 in the assay on KB was 5.81; in the assay with HepG2, 4.99.
In the case of `Cc1cn([C@H]2C[C@H](n3cc(COC(=O)[C@H](CO)n4c5c(c6ccccc6c4=O)C(=O)c4ccccc4-5)nn3)[C@@H](CO)O2)c(=O)[nH]c1=O`, the values for the pIC50 in the assay on KB and with HepG2 were 6.46 and 5.93, respectively.
On the same counts, the results for `Cc1cn([C@H]2C[C@H](n3cc(Cn4c5c(c6ccccc6c4=O)C(=O)c4ccccc4-5)nn3)[C@@H](CO)O2)c(=O)[nH]c1=O` are 6.10 and 6.19.
The corresponding values for `O=C1c2ccccc2-c2c1c1ccccc1c(=O)n2CC(O)Cn1cc(CBr)nn1` (stereo unspecified) are 6.10 and 6.12.
With `Cc1cn([C@H]2C[C@H](n3cc(COC(=O)Cn4c5c(c6ccccc6c4=O)C(=O)c4ccccc4-5)nn3)[C@@H](CO)O2)c(=O)[nH]c1=O`, the pIC50 in the assay on KB and in the assay with HepG2 was 4.58 throughout.
On to `O=C(NCc1cn(CC(O)Cn2c3c(c4ccccc4c2=O)C(=O)c2ccccc2-3)nn1)c1ccc(Br)cc1` (stereo unspecified), for which the pIC50 was 4.25 in the assay with KB and 4.36 with HepG2.
Take `CC(=O)OCc1cn(CC(Cn2c3c(c4ccccc4c2=O)C(=O)c2ccccc2-3)OC(C)=O)nn1` (stereo unspecified): the pIC50 with KB is 4.73; with HepG2 it was 4.72.
On the same counts, the results for `CC(C)C(=O)NCc1cn(CC(O)Cn2c3c(c4ccccc4c2=O)C(=O)c2ccccc2-3)nn1` (stereo unspecified) are 3.91 and 4.66.
`[N-]=[N+]=NCC(O)Cn1c2c(c3ccccc3c1=O)C(=O)c1ccccc1-2` (stereo unspecified): the pIC50 with KB is 4.38; in the assay on HepG2 it was 4.35.
As to `Cc1ccc(S(=O)(=O)Nc2cccc(-c3cn(CC(O)Cn4c5c(c6ccccc6c4=O)C(=O)c4ccccc4-5)nn3)c2)cc1` (stereo unspecified), the pIC50 in the assay on KB was 4.05; in the assay with HepG2 it was 4.16.
The corresponding values for `Cc1ccc(S(=O)(=O)NCc2cn(CC(O)Cn3c4c(c5ccccc5c3=O)C(=O)c3ccccc3-4)nn2)cc1` (stereo unspecified) are 3.94 and 3.94.
The corresponding values for `Cc1ccc(NC(=O)c2ccc(Cn3cc(Cn4c5c(c6ccccc6c4=O)C(=O)c4ccccc4-5)nn3)cc2)cc1Nc1nccc(-c2cccnc2)n1` are 5.81 and 5.63.
In the case of `Cc1cn([C@H]2C[C@H](n3cc(COC(=O)[C@H](Cc4ccccc4)n4c5c(c6ccccc6c4=O)C(=O)c4ccccc4-5)nn3)[C@@H](CO)O2)c(=O)[nH]c1=O`, the pIC50 with KB was 6.31; with HepG2 it was 6.32.
Take `Cc1cn([C@H]2C[C@H](N=[N+]=[N-])[C@@H](CO)O2)c(=O)[nH]c1=O` [ZIDOVUDINE]: the pIC50 with HepG2 was less than 3.32.
As for `O=C(OCc1cn(CC(O)Cn2c3c(c4ccccc4c2=O)C(=O)c2ccccc2-3)nn1)c1ccc(Cl)cc1` (stereo unspecified), the pIC50 in the assay on KB is 4.98; in the assay with HepG2 it was 5.01.
`COc1ccc(C(=O)OCc2cn(CC(O)Cn3c4c(c5ccccc5c3=O)C(=O)c3ccccc3-4)nn2)cc1` (stereo unspecified): the pIC50 in the assay on KB was 4.95; in the assay with HepG2, 4.93.
The corresponding values for `O=C1c2ccccc2-c2c1c1ccccc1c(=O)n2CC(O)Cn1cc(CO)nn1` (stereo unspecified) are 5.54 and 6.13.
Consider `O=C(OCc1cn(CC(O)Cn2c3c(c4ccccc4c2=O)C(=O)c2ccccc2-3)nn1)c1ccc(Br)cc1` (stereo unspecified), for which the pIC50 in the assay with KB was 5.20; in the assay with HepG2, 5.37.
The corresponding values for `NCc1cn(CC(O)Cn2c3c(c4ccccc4c2=O)C(=O)c2ccccc2-3)nn1` (stereo unspecified) are 4.30 and 3.71.
The corresponding values for `O=C1c2ccccc2-c2c1c1ccccc1c(=O)n2Cc1cn(CC(O)Cn2c3c(c4ccccc4c2=O)C(=O)c2ccccc2-3)nn1` (stereo unspecified) are 5.54 and 5.64.
The corresponding values for `CC(=O)Nc1cccc(-c2cn(CC(Cn3c4c(c5ccccc5c3=O)C(=O)c3ccccc3-4)OC(C)=O)nn2)c1` (stereo unspecified) are less than 3.63 and less than 3.63.
As to `Nc1cccc(-c2cn(CC(O)Cn3c4c(c5ccccc5c3=O)C(=O)c3ccccc3-4)nn2)c1` (stereo unspecified), the pIC50 was 4.81 in the assay with KB and 4.50 in the assay with HepG2.
On the same counts, the results for `CC(=O)NCc1cn(CC(O)Cn2c3c(c4ccccc4c2=O)C(=O)c2ccccc2-3)nn1` (stereo unspecified) are 4.85 and 5.04.
On the same counts, the results for `Cc1c2ccncc2c(C)c2c1[nH]c1ccccc12` [ELLIPTECINE] are 5.90 and 5.84.
Turning to `Cc1cn([C@H]2C[C@H](n3cc(COC(=O)[C@H](CC(C)C)n4c5c(c6ccccc6c4=O)C(=O)c4ccccc4-5)nn3)[C@@H](CO)O2)c(=O)[nH]c1=O`, the figures for the pIC50 with KB and in the assay on HepG2 were 6.12 and 5.65, respectively.

For the origin of these results see ChEMBL document CHEMBL3822444, “Synthesis and cytotoxic evaluation of novel indenoisoquinoline-substituted triazole hybrids” (Bioorg Med Chem Lett, 2016).
